Literature values as cited in patent publication US20200281963A1, “HYDROGEN MOLECULE-CONTAINING PROPHYLACTIC OR THERAPEUTIC AGENT FOR OXIDATIVE DAMAGE IN INTRAOCULAR SURGERIES” (priority 2016, published 2020).

Q: With `[HH]` [hydrogen molecules] as the compound, how does the “amount of hydrogen molecules that can be dissolved” value (in 1 L of water at 25° C. at 1 atm) read?
A: Its value is 17.5 mL.

Q: What about the “amount of hydrogen molecules that can be dissolved (concentration)” value (water at 25° C. at 1 atm) of the same compound?
A: Its value is “approximately 0.8 mM”.
